Entries after “also recorded” stand apart in the source; their conditions may differ.

The test system of one assay is type I procollagen. The experiment in a line: Synthesis of procollagen 1 in reconstructed skin (indirect immunofluorescence). Format: cell-based, human.
The test system of another assay is Collagen VI Col6A1. Briefly: Expression of collagen VI alpha 1-chain by dermal fibroblasts (RNA). Format: cell-based. Conditions: human dermal fibroblasts; Rhamnose 1 mM, Vitamin C 50 μM, alone or associated; D3 or D5 not stated. On the procedure:
(§1) This example describes the synergic effect of the association of vitamin C with L-rhamnose on the expression of the alpha 1-chain of collagens VI and XII of the extracellular matrix.
(§2) Human dermal fibroblasts (used at the ninth passage) are obtained from mammary or abdominal surgeries. The culture medium implemented is DMEM, supplemented with: • fetal calf serum (FCS), 10% • L-Glutamine, 2 mM (Invitrogen 25030024), • Penicillin (50 UI/mL), streptomycin (50 μg/mL), (Invitrogen 15070063), • Sodium pyruvate (Invitrogen 11360039), and • Non essential amino acids (Invitrogen 11140035).
(§3) Fibroblasts are cultured (D0) in supplemented DMEM medium as described above, incubated at 37° C. znd 5% CO2 in an atmosphere saturated with water. After adhesion of the cells (D1), the culture medium is removed and replaced with medium containing vitamin C, L-rhamnose or their association. The different stimulation conditions (vitamin C 25 μM, 50 μM, Rhamnose 1 mM and the different associations) were performed in triplicate (12 well dish). Studies of the expression of the different collagenes were performed on D3 and D5.
(§4) For each condition and at each time (D3 and D5), the supernatants are removed and the cell lawns are lysed. […]
(§5) RNAs are then quantified in fluorescence according to the Ribogreen protocol (Quan-it, Ribogreen RNA assay kit, invitrogen R11490) and reading with Tecan Safire. […]

For assay [1], the system named is keratinocytes (HaCat line). The experiment in a line: Proliferation of keratinocytes in medium deficient in growth factors (Cyquant, Nile red, XTT probes). Format: cell-based. The settings on record: HaCat keratinocytes in medium depleted in growth factors. The method, then:
The keratinocytes (HaCat line) are cultured under two conditions: whole defined culture medium (standard condition) and culture medium deficient in growth factors. This deficient medium gives rise to a controlled delay in cell proliferation. Under these conditions, it is then possible to measure the effects of compounds capable of compensating for the deficiency in growth factors of the culture medium and thus of relaunching the cell multiplication and/or of stimulating cell metabolism.
The keratinocyte proliferation is measured by means of three markers on the same cell population: the level of DNA, which is proportional to the number of cells (Cyquant probe), the level of constituent polar lipids of cell membranes (Nile red probe) and the mitochondrial respiration, which reflects the general cell metabolism (XTT probe).
(In general: Formazan colour is commonly taken as a measure of viable cells.)

The subject of a further assay is Collagen XII Cola12A1. Briefly: Expression of collagen XII alpha 1-chain by dermal fibroblasts (RNA). Format: cell-based. The settings on record: human dermal fibroblasts; Rhamnose 1 mM, Vitamin C 50 μM, alone or associated; D3 or D5 not stated. On the procedure: as §1, §2, §3, §4, §5

Regarding `C[C@H](O)[C@H](O)[C@@H](O)[C@@H](O)C=O` [Rhamnose, L-rhamnose], the “procollagen 1 synthesis (green fluorescence) vs control skin” value in the assay with type I procollagen (1 mM, 120 hours) was “stimulation; also recorded: marked increase”. For the same molecule, the “procollagen 1 synthesis” value in the assay with type I procollagen (5 mM) is given as “stimulation”. Moreover, in the assay on Collagen VI Col6A1, the “intensity of the biosynthesis of Collagen VI (Col6A1) compared to the control that is at 100” value was found to be 109. Moreover, in assay [1] (500 μM), the “keratinocyte proliferation (efficacy)” value is on record as “already show efficacy”. Moreover, in assay [1] (1 mM, vs untreated control), the “level of DNA (Cyquant)” value is listed as “significantly increased”, the “level of polar lipids (Nile red signal)” value is “significantly increased” and the “mitochondrial respiration (XTT signal)” value is listed as “significantly increased”. Further, the “intensity of the biosynthesis of Collagen XII (Cola12A1) compared to the control that is at 100” value in the assay with Collagen XII Cola12A1 is 115.

Take `O=C1O[C@H]([C@@H](O)CO)C(O)=C1O` [Vitamin C, ascorbic acid]: the “intensity of the biosynthesis of Collagen VI (Col6A1) compared to the control that is at 100” value in the assay with Collagen VI Col6A1 stood at 154. Further, in the assay on Collagen XII Cola12A1, the “intensity of the biosynthesis of Collagen XII (Cola12A1) compared to the control that is at 100” value was 124.

Source of the values: patent US20100173853A1, “COMBINATION OF MONOSACCHARIDES WITH ASCORBIC ACID AND USE THEREOF” (L'OREAL, priority 2008, published 2010).
